Data taken from PubChem BioAssay (NCI).
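Test compounds were applied to cells in 96-well plates for 48 hours at 5 doses. GI50 marks 50% less growth. TGI: total growth inhibition.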

Assays:
Experiment in all cases: NCI-60 cell line screen, 48 h
[1] = system: ACHN renal
[2] = system: HT29 colon
[3] = system: HCC-2998 colon
[4] = system: UACC-257 melanoma
[5] = system: OVCAR-4 ovarian
[6] = system: SNB-75 CNS
[7] = system: HOP-62 NSCLC
[8] = system: KM12 colon
[9] = system: SR leukemia

O=C1c2cccc3cc([N+](=O)[O-])cc(c23)C(=O)N1CCCN1CCN(CCCN2C(=O)c3cccc4cc([N+](=O)[O-])cc(c34)C2=O)CC1
TGI [1]: 4.28 µM | TGI [2]: > 100 µM | TGI [3]: 54.3 µM | TGI [4]: 8.97 µM | TGI [5]: 5.96 µM | TGI [6]: 9.54 µM | TGI [7]: 33.8 µM

C=C1C(=O)O[C@H]2[C@H]1CC/C(COC(=O)c1ccc(C(=O)O)s1)=C\CC[C@@]1(C)O[C@@H]21
GI50 [1]: 1.63 µM | TGI [1]: 3.02 µM | GI50 [2]: 1.56 µM | TGI [2]: 3.5 µM | GI50 [3]: 3.47 µM | TGI [3]: 11.5 µM | GI50 [4]: 2.18 µM | TGI [4]: 5.47 µM | GI50 [8]: 2.82 µM | TGI [8]: 8.46 µM | GI50 [5]: 3.18 µM | TGI [5]: 10.5 µM | GI50 [7]: 6.96 µM | TGI [7]: 20.2 µM

CCOC(=O)/C(=C\c1ccc(CO)o1)P(=O)(OCC)OCC
TGI [1]: > 100 µM | TGI [2]: > 100 µM | TGI [3]: > 100 µM | TGI [4]: > 100 µM | TGI [8]: > 100 µM | TGI [5]: 35.9 µM | TGI [6]: > 100 µM | TGI [7]: > 100 µM | TGI [9]: 71.6 µM

CC/C=C\C[C@H](O)C/C=C1/C(=O)C=C[C@@H]1C/C=C\CCCC(N)=O
GI50 [1]: 1.64 µM | TGI [1]: 3.35 µM | GI50 [2]: 1.89 µM | TGI [2]: 3.7 µM | GI50 [3]: 1.98 µM | TGI [3]: 3.7 µM | GI50 [4]: 1.97 µM | TGI [4]: 5.3 µM | GI50 [8]: 1.68 µM | TGI [8]: 4.21 µM | GI50 [5]: 3.45 µM | TGI [5]: 16.8 µM | GI50 [6]: 10.5 µM | TGI [6]: 22.3 µM | GI50 [7]: 2.99 µM | TGI [7]: 7.77 µM

Cc1ccc(S(=O)(=O)NCCN2c3nc4ccccc4cc3Sc3cc4ccccc4nc32)cc1
GI50 [1]: 8.42 µM | TGI [1]: > 100 µM | GI50 [2]: > 100 µM | TGI [2]: > 100 µM | GI50 [3]: > 100 µM | TGI [3]: > 100 µM | GI50 [4]: > 100 µM | TGI [4]: > 100 µM | GI50 [8]: > 100 µM | TGI [8]: > 100 µM | GI50 [6]: 1.54 µM | TGI [6]: 7.84 µM | GI50 [7]: 16.5 µM | TGI [7]: 98.9 µM | GI50 [9]: > 100 µM | TGI [9]: > 100 µM

NC(N)=NNC(=O)C(=O)O
TGI [1]: > 100 µM | TGI [2]: > 100 µM | TGI [3]: > 100 µM | TGI [4]: > 100 µM | TGI [8]: > 100 µM | TGI [5]: > 100 µM | TGI [6]: > 100 µM | TGI [7]: > 100 µM | TGI [9]: > 100 µM

CN(C)CN1C(=O)S/C(=C2\C(=O)N(CN(C)C)c3ccccc32)C1=O
TGI [1]: > 100 µM | TGI [2]: > 100 µM | TGI [3]: > 100 µM | TGI [4]: > 100 µM | TGI [8]: > 100 µM | TGI [5]: > 100 µM | TGI [6]: 74.5 µM | TGI [7]: > 100 µM | TGI [9]: 45.3 µM

COc1ccc2c(C3(O)CCNCC3)c[nH]c2c1
TGI [1]: > 100 µM | TGI [2]: > 100 µM | TGI [3]: > 100 µM | TGI [8]: > 100 µM | TGI [5]: > 100 µM | TGI [6]: > 100 µM | TGI [7]: > 100 µM

O=C(O)c1nnsc1COCc1ccccc1
TGI [1]: > 100 µM | TGI [2]: > 100 µM | TGI [4]: > 100 µM | TGI [8]: > 100 µM | TGI [5]: > 100 µM | TGI [6]: > 100 µM | TGI [7]: > 100 µM | TGI [9]: > 100 µM

O=C(O)C(Cc1ccc(O)c([N+](=O)[O-])c1)N1C(=O)c2ccccc2C1=O (stereo not given)
TGI [1]: > 100 µM | TGI [2]: > 100 µM | TGI [4]: > 100 µM | TGI [8]: > 100 µM | TGI [5]: > 100 µM | TGI [6]: > 100 µM | TGI [7]: > 100 µM | TGI [9]: > 100 µM

CCN(CC)CC(C)Nc1ccc(C)c2sc3ccccc3c(=O)c12 (stereo not given)
GI50 [1]: 3.88 µM | TGI [1]: 15.1 µM | GI50 [2]: 3.29 µM | TGI [2]: 10.8 µM | GI50 [3]: 3.19 µM | TGI [3]: 15 µM | GI50 [4]: 2.07 µM | TGI [4]: 4.82 µM | GI50 [8]: 4.71 µM | TGI [8]: 16.9 µM | GI50 [5]: 7.61 µM | TGI [5]: 20.5 µM | GI50 [6]: 2.2 µM | TGI [6]: 10.8 µM | GI50 [7]: 2.63 µM | TGI [7]: 8.67 µM

CC(C)(C)C([O-])=C1C(=O)c2ccccc2C1=O.CC(C)(C)C([O-])=C1C(=O)c2ccccc2C1=O.CC[O-].CC[O-].[Ti+4]
GI50 [1]: 35.2 µM | TGI [1]: > 100 µM | GI50 [2]: 32.9 µM | TGI [2]: > 100 µM | GI50 [3]: 40.3 µM | TGI [3]: > 100 µM | GI50 [4]: 30.4 µM | TGI [4]: 96.9 µM | GI50 [8]: 37.6 µM | TGI [8]: > 100 µM | GI50 [5]: 58.7 µM | TGI [5]: > 100 µM | GI50 [6]: 42.3 µM | TGI [6]: > 100 µM | GI50 [7]: 37.7 µM | TGI [7]: > 100 µM

CCOC(=O)/C(C1=CC(=O)C(=O)c2ccccc21)=C(/C)NCc1ccccc1
GI50 [1]: 2.28 µM | TGI [1]: 4.75 µM | GI50 [2]: 4.36 µM | TGI [2]: > 100 µM | GI50 [3]: 2.85 µM | TGI [3]: 8.2 µM | GI50 [4]: 2.56 µM | TGI [4]: 10.9 µM | GI50 [5]: 3.12 µM | TGI [5]: 56.7 µM | GI50 [6]: 3.11 µM | TGI [6]: 55.5 µM | GI50 [7]: 1.56 µM | TGI [7]: 3.44 µM | GI50 [9]: 0.127 µM | TGI [9]: 0.274 µM

O=S(=O)(O)c1ccc2cc(N=Nc3cc(S(=O)(=O)O)c4cccnc4c3O)ccc2c1
TGI [1]: > 100 µM | TGI [2]: > 100 µM | TGI [4]: > 100 µM | TGI [8]: > 100 µM | TGI [5]: > 100 µM | TGI [6]: > 100 µM | TGI [7]: > 100 µM | TGI [9]: > 100 µM

O=C(/C=C/c1ccc([N+](=O)[O-])o1)NNC(=O)c1cc2ccccc2cc1O
GI50 [1]: 0.688 µM | TGI [1]: 2.24 µM | GI50 [2]: 2.88 µM | TGI [2]: > 100 µM | GI50 [3]: 1.32 µM | TGI [3]: 3.21 µM | GI50 [4]: 0.906 µM | TGI [4]: 3.92 µM | GI50 [8]: 2.18 µM | TGI [8]: > 23 µM | GI50 [5]: 1.26 µM | TGI [5]: > 100 µM | GI50 [6]: 1.72 µM | TGI [6]: > 100 µM | GI50 [7]: 3.67 µM | TGI [7]: > 100 µM

NC(N)=N/N=C/c1c(-c2cc(Cl)sc2Cl)nc2n1CCS2
GI50 [1]: 8.31 µM | TGI [1]: 15.1 µM | GI50 [3]: 5.11 µM | TGI [3]: 12.6 µM | GI50 [4]: 9 µM | TGI [4]: 20.4 µM | GI50 [8]: 8.33 µM | TGI [8]: 16.1 µM | GI50 [7]: 8.87 µM | TGI [7]: 15.8 µM | GI50 [9]: 8.04 µM | TGI [9]: 20.7 µM

OCCCNCc1ccccn1
TGI [1]: > 100 µM | TGI [2]: > 100 µM | TGI [4]: > 100 µM | TGI [8]: > 100 µM | TGI [5]: > 100 µM | TGI [6]: > 100 µM | TGI [7]: > 100 µM | TGI [9]: > 100 µM

OC1CCC(C2C3CCCCC3C3CCCCC3C2C2CCC(O)CC2)CC1 (stereo not given)
TGI [1]: 7.48 µM | TGI [2]: 3.96 µM | TGI [4]: 33.4 µM | TGI [8]: 15.5 µM | TGI [5]: 16 µM | TGI [6]: 21.6 µM | TGI [7]: 47.4 µM | TGI [9]: > 100 µM

CN(C)CCNC(=O)c1cccc(CO)c1[N+](=O)[O-]
TGI [1]: > 100 µM | TGI [2]: > 100 µM | TGI [3]: > 100 µM | TGI [4]: > 100 µM | TGI [8]: > 100 µM | TGI [6]: > 100 µM | TGI [7]: > 100 µM | TGI [9]: > 100 µM

O=C1C=C(c2cc(Br)c(O)c(Br)c2)/C(=C/c2cc(Br)c(O)c(Br)c2)O1
GI50 [1]: 29.4 µM | TGI [1]: > 75 µM | GI50 [2]: 39.2 µM | TGI [2]: > 75 µM | GI50 [3]: 56.1 µM | TGI [3]: > 75 µM | GI50 [4]: > 75 µM | TGI [4]: > 75 µM | GI50 [8]: 37.6 µM | TGI [8]: > 75 µM | GI50 [5]: 50.4 µM | TGI [5]: > 75 µM | GI50 [6]: 39 µM | TGI [6]: > 75 µM
